Data reported in paper PMC8049018, “A MIF‐Derived Cyclopeptide that Inhibits MIF Binding and Atherogenic Signaling via the Chemokine Receptor CXCR2” (Chembiochem, 2020).
Bridge positions count the residues as written; N and C are the ends. Ends that are not written are not given here. Peptide text beside a SMILES is read from it. Fluos = 5(6)-carboxyfluorescein

Experiments:
[1] = Proteolytic stability assay in human plasma; assay type: in vitro ADME; settings: 37 °C; for half-life: human plasma (citrate-anticoagulated), human plasma (citrate 10 mM, pH 7.0), peptide 200–500 μg/mL, TCA stop, intact peptide by C18 RP-HPLC (214 nm) peak area, MALDI-MS verified, three independent incubations, read-out: t1/2 in human blood plasma (converted)
Method: Proteolytic stability assay: Proteolytic stability studies of peptides were performed following a previously described experimental protocol.[ ^20 , ^23 ] Briefly, peptides were incubated (200–500 μg/mL) in human plasma, isolated from the blood of healthy volunteers by routine methods using citrate (10 mM, pH 7.0) as an anti‐coagulant, at 37 °C for various time intervals. At the end of each interval, a stop solution (1 : 1) containing aqueous trichloroacetic acid (TCA, 10 %, v/v) was added and the samples kept on ice for 10 min. Samples were centrifuged at 20 000 g for 4 min, the supernatants retrieved and mixed 1 : 2 with a solution of 80 % HPLC buffer B (0.05 % (v/v) TFA in 90 % (v/v) CH3CN in water) and 20 % HPLC buffer A (0.058 % (v/v) TFA in water). Samples were analyzed by RP‐HPLC (detection at 214 nm) using a Nucleosil 100 C18 column (Grace; length 33 mm, i.d. 8 mm, 7 μm particle size). ^[24] The flow rate was 2 mL/min and the samples were analyzed with an elution program consisting of 2 steps; first step: 10 % HPLC buffer B in buffer A (1 min) and second step: a gradient from 10 to 90 % HPLC buffer B in buffer A (6 min). Peaks were collected, immediately frozen, lyophilized, and their molecular weights determined by MALDI‐MS. The HPLC peak areas were used to quantify remaining peptides in plasma.

[2] = CD concentration dependence study; assay type: physicochemical; settings: between 5 and 100 μM
From the text: Peptides: Linear MIF‐derived peptides were generated by standard Fmoc‐based solid phase peptide synthesis (SPPS) in their N‐terminally acetylated and C‐terminally amidated forms and purified by reversed‐phase (RP)‐HPLC as previously described. ^[18] 5(6)‐Carboxyfluorescein (Fluos) N‐terminally labeled peptides were synthesized as described. ^[19] Peptide purity was verified by matrix‐assisted laser desorption ionization mass spectrometry (MALDI‐MS). Cyclic peptide derivatives MIF(cyclo0), MIF(cyclo4), MIF(cyclo6), and MIF(cyclo10), containing terminal cysteines and different numbers of glycine and serine spacer residues to tailor ring size, were custom‐synthesized and purified (>96 % purity grade) by American Peptide Company (APC), Inc./Bachem (Bubendorf, Switzerland), or as described previously, ^[20] applying standard disulfide‐based oxidation procedures. […] The sequence of the scrambled control peptide of MIF(47–56) is […].
Circular dichroism spectroscopy: CD spectra were recorded on a Jasco J‐715 spectropolarimeter in a wavelength range between 190 and 250 nm. Spectra were measured at 0.1 nm intervals and a response time of 1 s. […] Each spectrum was measured three times, averaged and smoothed after background subtraction of the buffer. […]

CXCR2 [3] = molecular target: T1, CXCR2 (Homo sapiens, UniProt P25025); experiment: Label-free dynamic mass redistribution (DMR), HEK293-CXCR2 transfectants; assay type: cell-based; settings: peptide 500 μM (MIF(47–56) also 100–500 μM), 30 s intervals
T1 construct: expressed in transfected cells
T1 sequence (P25025 1-360): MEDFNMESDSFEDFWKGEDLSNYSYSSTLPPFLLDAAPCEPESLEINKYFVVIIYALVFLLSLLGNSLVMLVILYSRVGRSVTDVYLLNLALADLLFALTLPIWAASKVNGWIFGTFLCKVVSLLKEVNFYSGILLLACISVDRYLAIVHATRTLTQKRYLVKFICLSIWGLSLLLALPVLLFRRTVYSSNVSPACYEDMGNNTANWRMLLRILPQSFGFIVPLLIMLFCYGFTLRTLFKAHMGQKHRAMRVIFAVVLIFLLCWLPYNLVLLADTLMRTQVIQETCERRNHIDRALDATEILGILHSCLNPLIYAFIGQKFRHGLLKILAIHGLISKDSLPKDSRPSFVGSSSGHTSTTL
Method: Label‐free dynamic mass redistribution: Dynamic mass redistribution (DMR) analysis ^[22] was performed according to Perkin Elmer's instructions for label‐free DMR measurements. Briefly, cells were seeded at a density of 40 000 cells per well of an EnSpire label‐free 96‐well fibronectin‐coated cell assay microplate (PerkinElmer). Post‐seeding, the cells were equilibrated at RT for 30 min and cultivated overnight in serum‐containing DMEM/F‐12 medium. The next day, the cells were washed four times with assay buffer containing 20 mM HEPES and 1 % DMSO in HBSS (pH 7.4), using an aspiration wand leaving a residual volume of 35 μL. The plate was equilibrated at RT for 2 h. […] Before adding the peptides, baseline measurements were performed for 10 min (30 s intervals) using the EnSpire Label‐free Multimode Plate Reader (PerkinElmer). Then, 20 μL of the respective peptides were added to the cells at a final concentration of 500 μM followed by real‐time measurements over a time period of 40 min (30 s intervals). The signal output represents a cumulative response overlay of all cells.

[4] = molecular target: T2, Alexa‐488‐labeled recombinant MIF (Alexa‐MIF) (Homo sapiens, UniProt P14174); experiment: Fluorescence spectroscopic titration of Alexa-MIF with peptide; assay type: binding; settings: Alexa-MIF 10 nM, peptide 0.1- to 1000-fold molar excess, 10 mM sodium phosphate pH 7.4, 1 % HFIP, RT, emission at 519 nm, three titrations
T2 construct: made in house
T2 sequence (P14174 1-115): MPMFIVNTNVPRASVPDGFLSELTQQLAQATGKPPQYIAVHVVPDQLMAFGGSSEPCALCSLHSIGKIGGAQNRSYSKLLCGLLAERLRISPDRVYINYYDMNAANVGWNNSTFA
Method: Fluorescence spectroscopy: Fluorescence spectroscopic titrations were performed on a Jasco FP‐6500 spectrofluorometer. Alexa Fluor‐488‐labelled rMIF (Alexa‐MIF) was reconstituted in 20 mM sodium phosphate buffer (pH 7.2). […] The excitation wavelength was set at 492 nm and fluorescence emission spectra were recorded between 500 and 600 nm within 2–3 min after the preparation of the mixtures at room temperature (RT).

[5] = system: Primary human monocytes (MIF/CXCR2 axis); experiment: Transwell migration assay, MIF-induced monocyte chemotaxis; assay type: cell-based; settings: peptide 5 μM, human MIF 8 nM, Transwell 5 μm pores, 3 h, 37 °C, n=3–11
Method: Transwell migration assay: The inhibitory potential of the MIF‐derived peptide analogues was measured by Transwell chemotaxis assay using CD14^+ monocytes isolated from PBMCs or the entire PBMC fraction, as previously described. ^[7a] Briefly, PBMCs from buffy coats or CD14+ monocytes isolated from PBMCs were diluted in RPMI1640 supplemented with 0.5 % bovine serum albumin (BSA) at a density of […] cells/mL. Cells were placed into the upper chamber of a 24‐well cell culture inserts with 5 μm pore size (Corning). 8 nM full‐length MIF served as chemoattractant and was pre‐incubated with or without 5 μM of the respective peptides and applied to the lower chamber. After a 3 h migration interval at 37 °C (5 % CO2), cells were collected and counted via a CASY Cell Counter (OLS, OMNI Life Science, Bremen, Germany).

CXCR2 [6] = molecular target: T1, CXCR2; experiment: Receptor binding assay, flow cytometry, HEK293-CXCR2 vs HEK293-WT; settings: 3.7 or 7.4 μM, on ice 2 h, HEK293-CXCR2 compared to non-transfected HEK293, flow cytometry, n=4–7

half-life [1] | Compound | Concentration dependence of CD spectra (solubility/aggregation check) [2] | CXCR2-binding response (change of resonant wavelength Δpm) (CXCR2 [3]) | also measured
> 480 min | CSCC[C@@H]1NC(=O)[C@H](CC(C)C)NC(=O)CNC(=O)CNC(=O)[C@H](CO)NC(=O)CNC(=O)CNC(=O)[C@@H](N)CSSC[C@@H](C(=O)O)NC(=O)CNC(=O)CNC(=O)[C@H](CO)NC(=O)CNC(=O)CNC(=O)[C@@H]2CCCN2C(=O)[C@H](CCC(=O)O)NC(=O)[C@H](CO)NC(=O)[C@H](CO)NC(=O)CNC(=O)CNC(=O)[C@H](Cc2ccccc2)NC(=O)[C@H](C)NC1=O [MIF(cyclo10)] (H-CGGSGGLMAFGGSSEPGGSGGC-OH; disulfide 1-22) | no concentration dependence of the CD spectra | – | Time up to which appreciable amounts of intact peptide were detectable ([1]; human plasma, C18 HPLC and MALDI-MS): up to 48 h; Resistance to proteolysis relative to MIF(47–56) ([1]; human plasma, ratio of t1/2): more than 16 fold
– | Ac-SFESGPAGML-NH2 [scrambled control sequence, reference compound] | – | fully abrogated | –
~30 min | Ac-LMAFGGSSEP-NH2 [MIF(47–56)] | no concentration dependence of the CD spectra | found to bind to HEK293‐CXCR2 transfectants | Direct binding to MIF [4]: does not directly bind to MIF; Inhibition of MIF-induced monocyte chemotaxis [5]: significantly inhibited
– | Fluos‐MIF(47–56): fluorescently labeled MIF(47–56), 5(6)‐carboxyfluorescein at the N-terminus (Fluos-MAFGGSSEPC; UniProt P14174 48-57, looked up, fragment) | – | – | Binding to cell surface-expressed CXCR2 (MFI) (CXCR2 [6]): specifically bound to full‐length CXCR2
